Measured values taken from patent publication EP0267319A1, “Anti-spasmodic agents having a ring in the main chain” (United Pharmaceuticals, Inc., priority 1986, dated 1988).
Structures can show the parent of a compound that is named as a salt.

System: rabbit urinary bladder strip
Experiment: relaxant effect on bethanechol-contracted rabbit urinary bladder strips (organ bath)
Format: cell-based
Settings: for Decrease in force of contraction of rabbit bladder strip / Increase in length of rabbit bladder strip: strips pre-contracted with bethanechol 150 µM; for Increase in length of rabbit bladder strip: cumulative dosing, read 5 minutes after addition; for % background relaxation: term not explained
Experimental: The pharmological actions of one anti-spasmodic compound was studied in a rabbit urinary bladder strip preparation. In general, longitudinal strips were prepared from the base of freshly isolated rabbit bladders and were then suspended under near-physiological conditions in tissue baths. The strips were attached to force transducers and both contractile and relaxant activity was measured. To measure the relaxant effects on the anti-spasmodic compounds on previously-contracted bladder strips, the strips were initially exposed to the muscarinic receptor agonist bethanechol and allowed to reach a steady level of contractile activity for 20 minutes. At this point cumulative dose-responses to the compound was recorded. The rabbit abdomens were opened through a vertical midline incision. The bladder and urethra were dissected free of all surrounding tissues, removed and placed in aerated (95% O₂:5% CO₂) Kreb's-bicarbonate buffer (pH:7.4) of the following composition ([…]):KCl 4.6, CaCl₂·2H₂O 2.5, KH₂PO₄ 1.2, MgSO₄·7H₂O 1.2, NaCl 118.2, NaHCO₃ 24.8, and glucose 10.0. Longitudinal muscle strips were prepared from the bladder base (approximately 6 mm x 4 mm) and suspended in an organ bath containing Kreb's buffer (37°C) which was continuously aerated with O₂:CO₂ (95%:5%). Tissues were allowed to equilibrate to a tension of 2 gm for sixty minutes during which time buffer was replaced at 20 minute intervals. The contractile and relaxant responses of the muscle strips were measured isometrically with a Statham UC3 force-displacement transducer and recorded on an Electronics for Medicine DR8 oscillographic recorder. Bethanechol was employed as the representative cholinergic agonist and, following equilibration, was added to the baths for a final concentration of 150 µM. The tissues were allowed 20 minutes to achieve a maintained level of contraction in response to bethanechol and, at this point, cumulative dose-response measurements for one anti-spasmodic compound were started at concentrations ranging from 10⁻⁸ M to 10⁻⁴M. Solutions were added in volumes up to 100 µl and were prepared fresh each day by dissolving them in distilled:deionzed water. Responses were measured 5 minutes following any particular cumulative addition and were expressed as a percentage of maximal relaxation (e.g. maximal relaxation is the baseline or pre-bethanechol level of muscle tone).
Dose responses, measured from the standard bethanechol-contracted rabbit bladder strips, at various concentrations of 4-t-butyl-benzoyl-thio-S-(2-diethylaminoethyl)-ester·HCl [drawing 12] are presented in Table I: […]

CCN(CC)CCSC(=O)c1ccc(C(C)(C)C)cc1 [4-t-butyl-benzoyl-thio-S-(2-diethylaminoethyl)-ester·HCl]
Decrease in force of contraction of rabbit bladder strip (10^-4 moles/liter): 0.67 gm | Increase in length of rabbit bladder strip (10^-4 moles/liter): 3.2 cm | % background relaxation (10^-4 moles/liter): 31.8% | Decrease in force of contraction of rabbit bladder strip (10^-5 moles/liter): 0.27 gm | Increase in length of rabbit bladder strip (10^-5 moles/liter): 1.3 cm | % background relaxation (10^-5 moles/liter): 9.5% | Decrease in force of contraction of rabbit bladder strip (10^-6 moles/liter): 0.08 gm | Increase in length of rabbit bladder strip (10^-6 moles/liter): 0.4 cm | % background relaxation (10^-6 moles/liter): 0.0% | Decrease in force of contraction of rabbit bladder strip (10^-7 moles/liter): 0.04 gm | Increase in length of rabbit bladder strip (10^-7 moles/liter): 0.2 cm | % background relaxation (10^-7 moles/liter): 0.0% | Decrease in force of contraction of rabbit bladder strip (10^-8 moles/liter): 0.02 gm | Increase in length of rabbit bladder strip (10^-8 moles/liter): 0.1 cm | % background relaxation (10^-8 moles/liter): 0.0% | inhibition at 100 µM (Oryctolagus cuniculus, 5 min, 10^-4 moles/liter, maximal relaxation = pre-bethanechol level of muscle tone, read-out: % of maximum relaxation): 40.5% | inhibition at 10 µM (Oryctolagus cuniculus, 5 min, 10^-5 moles/liter, maximal relaxation = pre-bethanechol level of muscle tone, read-out: % of maximum relaxation): 16.5% | inhibition at 1 µM (Oryctolagus cuniculus, 5 min, 10^-6 moles/liter, maximal relaxation = pre-bethanechol level of muscle tone, read-out: % of maximum relaxation): 5.2% | inhibition at 0.1 µM (Oryctolagus cuniculus, 5 min, 10^-7 moles/liter, maximal relaxation = pre-bethanechol level of muscle tone, read-out: % of maximum relaxation): 2.6% | inhibition at 0.01 µM (Oryctolagus cuniculus, 5 min, 10^-8 moles/liter, maximal relaxation = pre-bethanechol level of muscle tone, read-out: % of maximum relaxation): 1.3%
